# Assay results published in article PMC10541198, “Specific quinone reductase 2 inhibitors reduce metabolic burden and reverse Alzheimer’s disease phenotype in mice” (The Journal of Clinical Investigation, 2023).
# Where “and” joins values, the source holds several entries; their conditions need not be identical. Equal values may be shown once.
# How the values were obtained:
# GFAP = test: IHC of GFAP (astrocyte activation) in 5xFAD brain sections; type: in vivo, mouse; conditions: for Figure 9E, IHC signal: individual animals
# From the text: Following the behavioral experiments, we assessed brain pathologies associated with AD present in the 5xFAD mice ([37]). Therefore, 5 days following the last behavioral experiment, and 1 month after the start of YB-537 consumption, mice were sacrificed, and coronal brain sections were used for IHC. Since the CA1 region of the hippocampus is affected during AD pathogenesis ([37]), and this brain region is involved in the behavioral paradigms used here, we acquired images of CA1. This was done with an Olympus IX83 confocal microscope using the same settings, antibodies, and exposures in all mice. Images were analyzed using Imaris (Bitplane; see methods). For each mouse, 3 coronal sections were used per antibody. In each section, the same region of CA1 was acquired, using the same image frame size and resolution, at all possible depths of the section — using a Z-stack of the whole section — to allow measurement of the fluorescent antibody marker volume, which was normalized to the brain volume from which it was taken. First, we measured oxidative stress, as indicated by 4-HNE ([38]) (Abcam, ab48506).
# Perfused and fixed brain slices were blocked with 10% normal donkey serum (DNS) and 0.2% triton (Sigma-Aldrich) in PBS. Antibodies, including 4-HNE (AbCam, ab48506), Iba1 (AbCam, ab5076), AT-8 (Thermo, MN1020), Amyloid β (AbCam, ab201060), diluted in PBS with 10% DNS, were incubated at 4°C overnight. Secondary antibodies including donkey-anti-goat Alexa Fluor 568 (AbCam, ab175704), donkey-anti-mouse Cy 5 (Jackson Immuno Research, 715-175-151), and donkey-anti-rabbit DyLight 488 (AbCam, ab98488) all diluted 1:500 in PBS with 1% BSA, were applied to the slices at RT for 2 hours the next day. Slices were mounted onto glass slides using DAPI containing Vectashield (H-1200). Images were taken using a confocal microscope (Olympus IX83). Three slices were used per mouse per antibody. Tiling images of the dorsal CA1 and cortex (Bregma: –1.58mm to –2.30mm) were taken using ×20 objective, acquiring a Z-stack of the whole section. Analysis of the images was done blind by an experimenter unaware of the experimental conditions or details, using Imaris (Bitplane) software. A surface reconstruction module was used to extract the data as volumes of the used markers (4-HNE, phospho-tau, amyloid β, GFAP, and Iba1). Marker volume and intensity were normalized to the corresponding brain volume. The normalized value was averaged for each triplicate and presented here. […]
# Brains were then briefly removed and placed in chilled, 4% PFA for 48 h, f oll owe d by immersion in 30% sucrose in 0.1 M PBS for a furt her 48 h. Bra i ns wer e t h e n stored at -80°C, until t he y were sliced into 40µm coronal sections usinga Lei ca CM 1950cryostat. Sli ces were then washed x3 in PBS and bl oc ke d for 1 h at RT using 10% normal donkey serum (DNS) and 0.2% triton (Sigma-Aldrich) in PBS. Antibodies, including 4- HNE (1:500, AbCam, ab48506), Iba1 (1:2,000, AbCam, ab5076), GFAP (Abcam, ab53554), phospho- tau (1:1,000, Thermo, MN1020) and amyloid β (1:1,000, AbCam, ab201060) diluted in PBS with 10% DNS were incubated at 4°C overnight. The next day, the slices were washed x3 times in PBS, and secondary antibodies including donkey anti goat A l e x a Fluor 568 (AbCam, ab175704), donkey anti-mouse Cy 5 (Jackson Immuno Research, 715- 175- 151) and donkey anti-rabbit DyLight 488 (AbCam, ab98488) all diluted 1:500 in PBS with 1% BSA, were applied to the slices at RT for 2 h. Following the incubation, the slices were washed x3 times in PBS, mounted onto gl ass slides, were uniformly covered in DAPI containing Vectashield (H-1200) and coverslips were a dde d. […]
# Amyloid β 42 = Amyloid β 42 ELISA, whole brain soluble and insoluble fractions; type: in vivo, mouse; parameters: Sup. Fig. 6-6A, individual animal values / Sup. Fig. 6-6B, individual animal values / Sup. Fig. 6-6D, individual animal values / Sup. Fig. 6-6G, individual animal values / Sup. Fig. 6-6H, individual animal values: unit not given here; conditions: for Insoluble amyloid β 42 / Ratio of soluble- to insoluble amyloid β 42 / Soluble amyloid β 42: whole brain, 5xFAD 1 month
# Experimental: Following completion of treatment with YB-537 or vehicle for 1 month in drinking water, mice were sacrificed, and brains were quickly removed and placed on ice. Brains were then bisected, and the cerebellum removed. Both hemispheres were then flash frozen in liquid nitrogen, with one hemisphere being used for Amyloid β 42 detection and the other used for WB. For Amyloid β 42 detection the hemisphere was first weighed, and then homogenised on ice using 1 mL of 0.1% Triton X-100 in TBS with complete protease inhibitor (Roche) and phosphatase inhibitor cocktail (Roche). Homogenates were then centrifuged at 100,000g for 1 h at 4° C, and supernatant containing t he soluble fraction of Amyloid β 42 was collected and stored at - 20° C overnight. The pellet, containing insoluble Amyloid β 42 was re - suspended in 1 mL of 5M guanidine HCl, placed on a rocker at RT f or 2h, and then stored overnight at 4° C, with later storage being done at -20° C. The insoluble fraction was then diluted 1:5 in TBS, and centrifuged for 30 min at 13,000g and 4° C. The resulting supernatant was then used to quantify the insoluble fraction. Protein determination was done on both soluble and insoluble fractions thus prepared, using a BCA kit (Thermo). Human Amyloid (aa1- 42) Quantikine ELISA Kit was then used as per the manufacturer’s instructions (R&D Systems, DAB142). Results obtained were then quantified as ng Amyloid β 42 / mL sample / brain hemisphere weight.
# Experimental grouping was randomly allocated, in both rats and mice. The size for each group was based on previously published results by means of similar methods, with the use of an online power calculator (https://www.stat.ubc.ca/~rollin/stats/ssize/n2.html). Shapiro- Wilk normality tests were done for the collected data. Anal ysi s of normally distributed dat a was done using par am et ri c t ests (i .e. - unpaired students t-test, one-way ANOVA followed by Tukey’s or Sidak post hoc anal ys i s) and for data not normally
compound,measurement,setting,value
Cc1ccc(-c2cn3cccc(C)c3n2)cc1S(=O)(=O)N1CCNCC1 [YB-537],GFAP normalized volume (individual mice),"GFAP; CA1, 5xFAD 1 month, Females",0.0219 and 0.0268 and 0.0382 and 0.0442 and 0.0260 and 0.0233 and 0.0143
same,GFAP vs vehicle,"GFAP; CA1, 5xFAD 1 month, Females",unchanged
same,GFAP normalized volume (individual mice),"GFAP; CA1, 5xFAD 1 month, Males",0.0303 and 0.0430 and 0.0365 and 0.0251 and 0.0258 and 0.0274 and 0.0223 and 0.0292 and 0.0263
same,GFAP vs vehicle,"GFAP; CA1, 5xFAD 1 month, Males",unchanged
same,GFAP normalized volume (individual mice),"GFAP; CA1, 5xFAD 1 month, Males + Females",0.0303 and 0.0430 and 0.0365 and 0.0251 and 0.0258 and 0.0442 and 0.0260 and 0.0233 and 0.0143 and 0.0219 and 0.0268 and 0.0382 and 0.0274 and 0.0223 and 0.0292 and 0.0263
same,GFAP vs vehicle,"GFAP; CA1, 5xFAD 1 month, total population",unchanged
same,"Figure 9E, IHC signal",GFAP; Cortex,0.0026 and 0.0035 and 0.0044 and 0.0272 and 0.0046 and 0.0194 and 0.0258 and 0.0029 and 0.0033
same,"Figure 9E, IHC signal",GFAP; Hippocampus,0.0259 and 0.0223 and 0.0094 and 0.0129 and 0.0279 and 0.0329 and 0.0343 and 0.0281 and 0.0220
same,GFAP vs vehicle,"GFAP; cortex, 5xFAD 1 month, females",not significantly reduced
same,GFAP vs vehicle,"GFAP; cortex, 5xFAD 1 month, males",significantly reduced
same,GFAP vs vehicle,"GFAP; cortex, 5xFAD 1 month, total population",significantly reduced
same,"Sup. Fig. 6-6A, individual animal values","Amyloid β 42; 5xFAD whole brain, all animals",0.36 and 0.35 and 1.82 and 1.07 and 0.33 and 5.68 and 2.65 and 2.02 and 0.56
same,"Sup. Fig. 6-6B, individual animal values","Amyloid β 42; 5xFAD whole brain, all animals",31.16 and 54.15 and 11052.63 and 8070.79 and 40.92 and 4330.77 and 6642.89 and 15767.97 and 26.71
same,"Sup. Fig. 6-6C, individual animal values","Amyloid β 42; 5xFAD whole brain, all animals, ratio of 6-6A to 6-6B values",0.0114 and 0.0064 and 0.000165 and 0.000133 and 0.0080 and 0.0013 and 0.0004 and 0.000128 and 0.0210
same,"Sup. Fig. 6-6D, individual animal values","Amyloid β 42; 5xFAD whole brain, first subset of the 6-6A animals (sex not given)",1.07 and 0.33 and 5.68 and 2.65 and 0.56 and 0.35
same,"Sup. Fig. 6-6F, individual animal values","Amyloid β 42; 5xFAD whole brain, first subset of the 6-6C animals (sex not given), ratio",0.000133 and 0.0080 and 0.0013 and 0.0004 and 0.0210 and 0.0064
same,"Sup. Fig. 6-6G, individual animal values","Amyloid β 42; 5xFAD whole brain, second subset of the 6-6A animals (sex not given)",2.02 and 0.36 and 1.82
same,"Sup. Fig. 6-6H, individual animal values","Amyloid β 42; 5xFAD whole brain, second subset of the 6-6B animals (sex not given)",15767.97 and 31.16 and 11052.63
same,"Sup. Fig. 6-6I, individual animal values","Amyloid β 42; 5xFAD whole brain, second subset of the 6-6C animals (sex not given), ratio",0.000128 and 0.0114 and 0.000165
same,Insoluble amyloid β 42,Amyloid β 42; both sexes,insignificantly reduced
same,Ratio of soluble- to insoluble amyloid β 42,Amyloid β 42; both sexes,insignificantly increased
same,Soluble amyloid β 42,Amyloid β 42; both sexes,insignificantly reduced
same,Insoluble amyloid β 42,Amyloid β 42; female,insignificantly reduced
same,Soluble amyloid β 42,Amyloid β 42; female,insignificantly reduced
same,Insoluble amyloid β 42,Amyloid β 42; male,insignificantly reduced
same,Ratio of soluble- to insoluble amyloid β 42,Amyloid β 42; male,insignificantly increased
same,Soluble amyloid β 42,Amyloid β 42; male,insignificantly reduced
